Values of other authors, collected in PMC5014530 (Molecular Therapy. Nucleic Acids, 2016).

Test system: mitochondrial membranes

## (KLAKLA)2
  Mechanism of apoptosis induction: disrupts mitochondrial membranes to cause apoptosis
